One test addresses T1, human OX1 receptor (Homo sapiens, UniProt O43613).
T1 sequence (O43613 1-425): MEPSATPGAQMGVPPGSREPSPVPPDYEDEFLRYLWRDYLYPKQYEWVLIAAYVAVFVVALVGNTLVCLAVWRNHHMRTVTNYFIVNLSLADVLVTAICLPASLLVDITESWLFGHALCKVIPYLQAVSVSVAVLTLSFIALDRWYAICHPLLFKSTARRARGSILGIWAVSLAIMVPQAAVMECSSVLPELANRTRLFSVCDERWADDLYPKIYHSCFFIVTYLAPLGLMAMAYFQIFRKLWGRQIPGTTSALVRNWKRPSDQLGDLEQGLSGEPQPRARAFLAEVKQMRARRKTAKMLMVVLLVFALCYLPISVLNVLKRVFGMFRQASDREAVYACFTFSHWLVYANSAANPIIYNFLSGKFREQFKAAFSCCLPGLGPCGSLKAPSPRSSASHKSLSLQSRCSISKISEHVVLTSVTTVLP
Kind of test: [3H]-radioligand binding assay, OX1. Details: made in house; host or cells: SF21 insect cells (baculovirus; P0 virus made in SF9). The conditions noted are these: for Ki: [3H]-radioligand binding, human OX1 membranes, read-out: pKi average OX1 (converted). The source says:
(§1) Cloning, Baculovirus generation, large-scale infection of SF21 cells and membrane preparation. Human OX1 or OX2 receptor were cloned into Invitrogen's (ThermoFisher Scientific, UK) Bac-to-Bac Baculovirus Expression System. P0 baculovirus was generated by transfecting SF9 cells with bacmid DNA using Cellfectin® II transfection reagent (ThermoFisher Scientific, UK, Catalog number 10362-100). Following P0 generation P1 virus was then generated ready for large scale infection and membrane preparation. SF21 cells were grown in expression medium ESF921 (Expression Systems, USA, catalog number 96-001-01) supplemented with 10% heat-inactivated FBS and 1% Pen/Strep and were infected at a cell density of 2.5×10^6 cells/mL and a multiplicity of infection of 1.0 for both human OX1R and OX2R. Incubation was carried out at over 48 h in a shaking incubator set at 27° C. The cell culture was then centrifuged at 2,500 rcf for 10 min at 4° C. The pellets were resuspended in cold PBS supplemented with Roche's Complete EDTA-free protease inhibitor cocktail tablets (Roche Applied Sciences, catalog number 05056489001), 1 mM PMSF and 1 mM EDTA. The resuspended cell paste was then centrifuged at 3,273 rcf for 12 min at 4° C. The supernatant was discarded and the pellet frozen at −80° C. The cell pellet from a 4 L culture was resuspended in buffer containing 50 mM HEPES pH 7.5, 150 mM NaCl, 8 Roche EDTA-Free protease inhibitor cocktail tablets and 1 mM PMSF. The suspension was left stirring at rt for 1 h and then homogenised for 90 s at 9,500 rpm using a VDI 25 (VWR, USA) homogeniser. The cells were then lysed using a Microfluidiser processor M-110L Pneumatic (Microfluidics, USA) at 60 PSI and membranes collected by ultracentrifugation at 204.7 k×g for 1 h. The supernatant was discarded and the pellet was resuspended and homogenised in 90 s at 9,500 rpm in 50 mL (25 mL for each 2 L culture) of buffer containing 50 mM Hepes pH 7.5, 150 mM NaCl, 3 Roche EDTA-free protease inhibitor cocktail tablets and 1 mM PMSF. The resulting membranes were then stored at −80° C.
(§2) [^3H]-radioligand binding assay. After thawing, membrane homogenates were resuspended in the binding buffer (8.5 mM HEPES, pH 7.4, 1.3 mM CaCl2, 1.2 mM MgSO4, 118 mM NaCl, 4.7 mM KCl, 4 mM NaHCO3, 1.2 mM KH2PO4, 11 mM glucose) to a final assay concentration of 6.4 μg (OX1) or 1.4 μg (OX2) protein per well. Saturation isotherms were determined by the addition of various concentrations (0-30 nM) of [^3H]-4-(2,6-difluoro-4-methoxybenzyl)-2-(5,6-dimethoxypyridin-3-yl)-2H-1,2,4-benzothiadiazin-3(4H)-one 1,1-dioxide (Christopher et al, MedChemComm., 2015, 6, 947-955) in a total reaction volume of 250 μL for 90 min at rt. At the end of the incubation, membranes were filtered onto a 96-well GF/B filter pre-incubated with 0.5% polyethylenimine, with a Tomtec cell harvester and washed 5 times with 0.5 mL distilled water. Non-specific binding (NSB) was measured in the presence of 3.33 μM [4-(5-chloro-1,3-benzoxazol-2-yl)-7-methyl-1,4-diazepan-1-yl][5-methyl-2-(2H-1,2,3-triazol-2-yl)phenyl]methanone (Wertz et al, Angew. Chem. Int. Ed., 2011, 50, 11511-11515). Radioactivity on the filter was counted (1 min) on a Microbeta radiometric plate counter (Perkin Elmer) after addition of 50 μL of scintillation fluid (LabLogic: Part #SG-BXX-14). […] IC50 values were derived from the inhibition curve and the equilibrium dissociation constant (Ki) values were calculated using the Cheng-Prusoff equation.

The next test addresses T2, human OX2 receptor (Homo sapiens, UniProt O43614).
T2 sequence (O43614 1-444): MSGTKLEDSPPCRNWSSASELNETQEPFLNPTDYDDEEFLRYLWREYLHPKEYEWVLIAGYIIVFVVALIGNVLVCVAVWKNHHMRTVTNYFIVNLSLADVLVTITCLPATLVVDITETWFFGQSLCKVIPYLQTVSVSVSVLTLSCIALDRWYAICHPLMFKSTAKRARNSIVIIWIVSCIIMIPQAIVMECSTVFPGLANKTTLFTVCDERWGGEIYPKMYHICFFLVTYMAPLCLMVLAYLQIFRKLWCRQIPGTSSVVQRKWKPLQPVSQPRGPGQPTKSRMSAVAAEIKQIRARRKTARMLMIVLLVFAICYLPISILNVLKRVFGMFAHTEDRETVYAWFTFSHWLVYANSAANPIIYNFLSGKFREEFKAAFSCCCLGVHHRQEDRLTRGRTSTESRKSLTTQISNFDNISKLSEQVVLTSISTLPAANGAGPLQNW
Kind of test: [3H]-radioligand binding assay, OX2. Particulars: for Ki: [3H]-radioligand binding, human OX2 membranes, read-out: pKi average OX2 (converted). Also on record: made in house; host or cells: SF21 insect cells (baculovirus; P0 virus made in SF9).
Excerpt: as §1, §2

Bounds are passed on as bounds.

Results on five molecules are retold here after patent US20210179578A1, “OX1 ANTAGONISTS” (Heptares Therapeutics Limited, priority 2017, published 2021).

In the case of `Cc1ncc(C2CCc3c(F)cccc3N(Cc3cc(C#N)ccc3F)C2=O)cc1C(C)(F)F` (single isomer, unassigned) [Example 41, 3-({3-[5-(1,1-difluoroethyl)-6-methylpyridin-3-yl]-6-fluoro-2-oxo-2,3,4,5-tetrahydro-1H-1-benzazepin-1-yl}methyl)-4-fluorobenzonitrile], the Ki on human OX1 receptor is 1.26 nM; on human OX2 receptor, > 501 nM.

In the case of `COc1ncc(C2CCc3c(F)cccc3N(Cc3c(F)cc(Br)cc3F)C2=O)cc1S(C)(=O)=O` (single isomer, unassigned) [Example 20, 1-(4-bromo-2,6-difluorobenzyl)-6-fluoro-3-[6-methoxy-5-(methylsulfonyl)pyridin-3-yl]-1,3,4,5-tetrahydro-2H-1-benzazepin-2-one], the figures for the Ki on human OX1 receptor and at human OX2 receptor were 200 nM and > 631 nM, respectively.

On to `COc1ncc(C2CCc3c(F)cccc3N(Cc3c(F)cc(Br)cc3F)C2=O)cc1C(C)(F)F` (single isomer, unassigned) [Example 11, 1-(4-bromo-2,6-difluorobenzyl)-3-[5-(1,1-difluoroethyl)-6-methoxypyridin-3-yl]-6-fluoro-1,3,4,5-tetrahydro-2H-1-benzazepin-2-one], for which the results for the Ki at human OX1 receptor and on human OX2 receptor were 1.58 nM and > 126 nM, respectively.

As to `COCc1cc(F)c(CN2C(=O)C(c3cnc(C)c(C(C)(F)F)c3)CCc3c(F)cccc32)c(F)c1` (single isomer, unassigned) [Example 40, 3-[5-(1,1-difluoroethyl)-6-methylpyridin-3-yl]-1-[2,6-difluoro-4-(methoxymethyl)benzyl]-6-fluoro-1,3,4,5-tetrahydro-2H-1-benzazepin-2-one], the results for the Ki on human OX1 receptor and on human OX2 receptor were 1.58 nM and > 15.8 nM, respectively.

In general, Kd refers to the concentration at which binding is half-saturated. Higher therefore signals a looser complex. As for `COc1cc(F)c(CN2C(=O)N(c3cnc(OC)c(OC)c3)S(=O)(=O)c3ccccc32)c(F)c1` [[^3H]-4-(2,6-difluoro-4-methoxybenzyl)-2-(5,6-dimethoxypyridin-3-yl)-2H-1,2,4-benzothiadiazin-3(4H)-one 1,1-dioxide, reference compound], the Kd at human OX1 receptor (OX1 receptor membranes, saturation isotherms) stood at 1.5 nM; at human OX2 receptor (OX2 receptor membranes, saturation isotherms), 0.75 nM.
